Results as given in PMC6753678, “Fueling Open Innovation for Malaria Transmission-Blocking Drugs: Hundreds of Molecules Targeting Early Parasite Mosquito Stages” (Frontiers in Microbiology, 2019).
Read-outs that look alike come from different tables or passages of the source.

Assays:
[1] = system: P. berghei ookinete development; details: for % inhibition, Replicate A / % inhibition, Replicate B: primary screen at 1 μM
[2] = system: 3D7-strain P. falciparum asexual parasites; test: P. falciparum asexual growth inhibition assay (Pf GIA); format: cell-based, Plasmodium falciparum; details: dose response confirmation; read-out: Pf asexual growth inhibition assays IC50
Outline: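 Read-out was lactate dehydrogenase activity measured by absorbance at 650 nm after freezing and thawing, against 50 μM chloroquine and DMSO controls. Before that, asexual 3D7 cultures (0.25% parasitemia, 2% hematocrit) had 72 h dose-response compound exposure at 37°C in 5% CO2/5% O2/90% N2; three independent replicates averaged.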

HepG2 cells = test: HepG2 cytotoxicity assay; details: for IC50: read-out: HepG2 cytotoxicity assay IC50, dose response confirmation; for Pb ODA (this manuscript) HepG2 cytoxicity: HepG2 cytotoxicity listed with the Pb ODA data set (this manuscript)
Outline: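 Percent inhibition derived from fluorescent viability readout, normalised to DMSO (negative) and 50 μM doxorubicin (positive). Compound incubation lasted 48 h at 37°C, 5% CO2, with 2,500 HepG2 cells/well in MEM plus 10% FBS and 1% NEAA.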

[3] = read-out: Pb ODA IC50, this manuscript
[4] = read-out: Pb Ookinete development assay IC50, dose response confirmation
[5] = HepG2 values of the three screens unified
[6] = read-out: Pb ODA (this manuscript) IC50, P. berghei ookinete development assay, this manuscript

Row | Compound | Is compound selective in assay? Pb ODA active? ([1]; 1: YES, 0: NO) | % inhibition, Replicate A [1] | % inhibition, Replicate B [1] | IC50 [1, 3] | IC50 [1, 4] | IC50 [2] | HepG2 cytoxicity (Pb ODA, this manuscript) (HepG2 cells) | Unified cytotox (HepG2 cells; [5]) | IC50 (HepG2 cells) | Unified cytotox (HepG2 cells; unified HepG2 value across the three screens) | Is compound selective in assay? Pb ODA active? [1] | IC50 [1, 6] | Pb ODA (this manuscript) HepG2 cytoxicity (HepG2 cells)
1 | Cc1[nH]c(C)c(-c2ccc(-c3ccc(OC(F)(F)F)cc3)cc2)c(=O)c1Cl [TCMDC-136060] | 1 (1: YES) | 87.72% | 84.45% | 53.8 nM | 54 nM | 77 nM | 64.57 µM | 64.57 µM | 64600 nM | – | – | – | –
2 | CCn1c(C)cc(C=C2SC(=Nc3ccccc3)NC2=O)c1C [TCMDC-124456] | 1 (1: YES) | 41.94% | 67.52% | 1010 nM | 1000 nM | 1700 nM | – | – | 97300 nM | 97.27 µM | – | – | –
3 | Br.Cc1ccc(OCCCON2C(=N)N=C(N)NC2(C)C)cc1C [TCMDC-131650] | – | 43.37% | 66.90% | – | 4960 nM | < 0.2 nM | – | – | 1 nM | – | 0 (key: 1: YES; 0: NO) | 4960 nM | 0.001 µM
4 | O=C(c1cc(-c2ccco2)[nH]n1)N1CCN(S(=O)(=O)c2ccc(Br)cc2)CC1 [TCMDC-124699] | – | 66.14% | 59.38% | – | 1020 nM | 178 nM | – | – | 100000 nM | – | 1 (key: 1: YES; 0: NO) | – | 100.00 µM
5 | Cc1[nH]c(C)c(-c2ccc(OCc3ccc(OC(F)(F)F)cc3)nc2)c(=O)c1Cl [TCMDC-135271] | 1 (1: YES) | 71.19% | 76.52% | 1070 nM | 1070 nM | 67 nM | – | 100.00 µM | 100000 nM | – | – | – | –
6 | Cl.O=C(NC1CCN(CC2(c3ccc(Cl)cc3)CCCCC2)CC1)c1cc[nH]n1 [TCMDC-124828] | – | 40.92% | 76.27% | – | 1620 nM | 66 nM | – | – | 35900 nM | – | 1 (key: 1: YES; 0: NO) | 1620 nM | 35.89 µM
7 | Br.CC1(C)NC(N)=NC(=N)N1OCCSc1ccc(Cl)c(Cl)c1 [TCMDC-131704] | – | 51.68% | 39.02% | – | 8290 nM | < 0.2 nM | – | – | 1 nM | – | 0 (key: 1: YES; 0: NO) | 8290 nM | 0.001 µM
8 | Br.CC1(C)N=C(N)N=C(N)N1OCCc1cccc2ccccc12 [TCMDC-131663] | – | 57.64% | 56.80% | – | 2710 nM | 24 nM | – | – | 1 nM | – | 0 (key: 1: YES; 0: NO) | 2710 nM | 0.001 µM
9 | Cc1cc2nc(/N=C(\N)NC(=O)NC3CCCCC3)nc(C)c2cc1C [TCMDC-124528] | – | 53.37% | 63.38% | – | 846 nM | 396 nM | – | – | 8510 nM | – | 1 (key: 1: YES; 0: NO) | 850 nM | 8.51 µM
10 | Cc1[nH]c(C)c(-c2ccc(C#Cc3ccc(F)cc3F)cc2)c(=O)c1Br [TCMDC-134692] | – | 89.67% | 88.19% | – | 399 nM | 16 nM | – | – | 100000 nM | – | 1 (key: 1: YES; 0: NO) | 400 nM | 100.00 µM
11 | Cc1[nH]c(C)c(-c2ccc(-c3ccccc3Cl)nc2)c(=O)c1Br [TCMDC-136157] | 0 (0: NO) | 96.17% | 90.55% | 430 nM | 432 nM | 48 nM | 0.14 µM | 0.14 µM | 140 nM | – | – | – | –
12 | Cc1[nH]c2ccccc2c(=O)c1Br [TCMDC-137427] | – | 55.99% | 67.98% | – | 1600 nM | 3390 nM | – | – | 100000 nM | – | 1 (key: 1: YES; 0: NO) | – | 100.00 µM
13 | COc1ccc2nccc([C@@H](O)CN3CCC(NC(=O)c4cc5c(F)cc(F)cc5[nH]4)CC3)c2n1 [TCMDC-134945] | – | 54.14% | 76.92% | – | 415 nM | 769 nM | – | – | 10500 nM | – | 1 (key: 1: YES; 0: NO) | 420 nM | 10.47 µM
14 | Cl.O=C1CSc2ccc(CNC3CCN(CCc4c(Cl)cnc5ccc(Cl)cc45)CC3)nc2N1 [TCMDC-141959] | 0 (0: NO) | 64.42% | 30.41% | 4220 nM | 4220 nM | 320 nM | 17.78 µM | 17.78 µM | 17800 nM | – | – | – | –
15 | Br.CC1(C)NC(N)=NC(=N)N1OCCSc1ccccc1 [TCMDC-131670] | – | 44.97% | 56.76% | – | 2860 nM | < 0.2 nM | – | – | 1 nM | – | 0 (key: 1: YES; 0: NO) | 2860 nM | 0.001 µM
16 | Cc1ccc2nc(/N=C(\N)NC(=O)NC3CCCCC3)nc(C)c2c1 [TCMDC-124557] | – | 85.28% | 75.31% | – | 1750 nM | 4680 nM | – | – | 57500 nM | – | 1 (key: 1: YES; 0: NO) | 1750 nM | 57.54 µM
17 | Cc1cccc2nc(-c3ccc(-c4ccc(CN5CCOCC5)cc4)cc3)[nH]c12.O=C(O)C(F)(F)F [TCMDC-133825] | – | 75.48% | 125.42% | – | 635 nM | 2230 nM | – | – | 27500 nM | – | 1 (key: 1: YES; 0: NO) | 630 nM | 27.54 µM
18 | Cc1[nH]c(C)c(-c2ccc(Oc3ccc(OC(F)(F)F)cc3)cc2)c(=O)c1Br [TCMDC-138826] | – | 67.69% | 78.09% | – | 7890 nM | 274 nM | – | – | 75900 nM | – | 0 (key: 1: YES; 0: NO) | 7890 nM | 75.86 µM
19 | Cc1[nH]c(C)c(-c2ccc(OCc3cc(F)cc(F)c3)nc2)c(=O)c1Cl [TCMDC-135676] | 0 (0: NO) | 78.17% | 102.44% | 2070 nM | 2070 nM | 36 nM | 7.85 µM | 7.85 µM | 7850 nM | – | – | – | –
